US20240182867A1, “CHEMICAL REPROGRAMMING OF HUMAN SOMATIC CELLS INTO PLURIPOTENT CELLS” (Peking University, priority 2021, published 2024)
Where a name gives a salt, the structure may show the parent alone.

Assays:
human somatic cells [1] = test: Replacement of small molecules by others targeting the same pathway; type: cell-based; conditions: for replacement of IWP-2: Wnt inhibitor; for replacement of ABT 869: receptor tyrosine kinase inhibitor
Protocol: VPA (500 μM), Tranylcypromine (10 μM), DZNep (0.05 μM), and EPZ004777 (5 μM) were included in the first 4 days. In several experiments, to testing the reprogramming efficiency after removing each small molecules, the indicated small molecules were removed from the cocktails.

human somatic cells [2] = test: Reprogramming efficiency with supplemental inhibitors; type: cell-based; conditions: inhibitor added to induction medium
Protocol: KnockOut™ DMEM supplemented with 10% KSR, 10% FBS, 1% GlutaMAX™, 1% NEAA, 0.055 mM 2-mercaptoethanol, 1% Penicillin-Streptomycin, 50 μg/ml Vc2p, 5 mM LiCl, 1 mM NAM, 100 ng/ml bFGF (Origene) and the small molecules CHIR99021 (10-12 μM), 616452 (10 μM), TTNPB (2 μM), SAG (0.5 μM), ABT-869 (1 μM), Y-27632 (10 μM), JNKIN8 (1 μM), Tranylcypromine (2 μM), 5-Azacytidine (5 μM), UNC0224 (1 μM), Ruxolitinib (1 μM), BIRB796 (2 μM), Dorsormorphin (0.5-1 μM). To enhance the reprogramming efficiency, the CBP/p300 bromodomain inhibitor SGC-CBP30 (2 μM) and Menin-MLL interaction inhibitor VTP50469 were introduced in stage II induction medium.
In several experiments, to testing the reprogramming efficiency after regulate each small molecules, the indicated small molecules were removed from the cocktails. The concentration of the small molecules used to targeting the same pathway or targets were indicated as follow: GSK3 inhibitors (CHIR99021: 3-15 μM; TD114-2: 0.5-2 μM; CHIR98014: 1-3 μM; GSK3βi XV: 0.05-0.2 μM); TGFβ inhibitors (A8301: 0.2-5 μM; SB431542: 2-50 μM; 616452: 10 μM); RA pathway agonists (TTNPB: 0.2-10 μM; Ch55: 1-10 μM; AM580: 0.1-1 μM); Rock inhibitors (Y27632: 2-15 μM; Fasudil: 2-10 μM; HA1100: 2-10 μM; TZV: 2-10 μM); Smoothened agonists (SAG: 0.2-2 μM; Purmorphamine: 0.5-2 μM; Hg-Ag1.5: 0.5-1 μM; Human shh: 20-200 μM); histone demethylation inhibitors (Tranylcypromine: 2-50 μM; GSK2879: 0.02-2 μM; LSD-C76: 0.2-5 μM; S2101: 0.5-5 μM; LSD-2D: 0.2-5 μM; RN-1: 0.2-5 μM); DNMT inhibitors (5-azaC: 2-15 μM; Decitabine: 0.5-10 μM; RG108: 0.5-10 μM); JNK inhibitors (JNK-in-8: 0.2-2 μM; JNK-in-5: 0.5-1 μM; JNK-in-7: 0.2-2 μM; JNK-in-12: 0.2-0.5 μM); CBP/p300 bromodomain inhibitor (SGC-CBP30: 0.5-2 μM; I-CBP112: 0.5-5 μM; GNE272: 0.5-5μM; GNE409:0.5-5μM); Menin-MLL interaction inhibitor (VTP50469: 0.5-2μM; MI3454: 0.5-2μM; WDR5-IN-4: 0.5-2μM). […]

human fibroblasts = test: Conversion of human fibroblasts into monolayer epithelial-like cells; type: cell-based; conditions: added into the combination CHIR99021, 616452 and TTNPB
Protocol: KnockOut™ DMEM (Gibco, 10829018) supplemented with 10% Knockout Serum Replacement (KSR) (Gibco, 10828028), 10% FBS, 1% GlutaMAX™, 1% NEAA, 1% Penicillin-Streptomycin, 0.055 mM 2-mercaptoethanol, 50 μg/ml L-Ascorbic acid 2-phosphate (Vc2P) (Sigma, A8960), 5 mM LiCl (Sigma, L4408), 1 mM Nicotinamide (NAM) (Sigma, 72340), 2 mg/mL AlbuMAX™-II (Gibco, 11021045) and the small molecules CHIR999021 (10 μM), 616452 (10 μM), TTNPB (2 μM), SAG (0.5 μM), ABT-869 (1 μM), Rock inhibitor (Y-27632 (2 μM) or Tzv (2 μM))
(§1) Cells were maintained at 37° C. with 21% 02 and 5% CO2. The induction medium was changed every 3-4 days. HEFs were seeded at a density of 1-1.5×10^4 cells per well of a 12-well plate in 15%. FBS-DMEM medium. Change the medium into stage I induction medium on the next day. For stage I induction, single layer epithelial-like cells would emerge at day 4-6 and approach 80%-100% confluence at day 8-12, then change the medium into stage II induction medium. For stage II induction, multi-layered colonies appeared after 8-12 days treatment and these cell colonies would continually grow larger. After totally 16-20 days' stage II treatment, change the medium into stage III condition. For stage III induction, 8-12 days treatment of stage III medium is required and then change the medium into stage IV condition. For stage IV induction, VPA (500 μM) was included in the first 4 days. Primary hCiPSC colonies would emerge after 6-8 days' treatment. At the end of stage IV, immunofluorescent staining of co-expression of OCT4 and NANOG was used to confirm the generation of primary hCiPSC colonies. Primary hCiPSC colony number was calculated as the number of the compact OCT4 positive colonies. Reprogramming efficiency was calculated as the number of primary hCiPSC colonies divided by the number of input HEFs.

human somatic cells [3] = test: hCiPSC colonies at the end of reprogramming after withdrawing individual chemicals from stage I or II; type: cell-based; conditions: factor removed
Protocol: as §1
(§2) In several experiments, to testing the reprogramming efficiency after removing each small molecules, the indicated small molecules were removed from the cocktails. The concentration of the small molecules used to regulate the same pathway or targets were indicated as follow: GSK3 inhibitors (CHIR99021: 3-15 μM; TD114-2: 0.5-2 μM; CHIR98014: 1-3 μM; GSK3βi XV: 0.05-0.2 μM); RA pathway agonists (TTNPB: 0.5-10 μM; Ch55: 1-5 μM; AM580: 0.1-1 μM); Rock inhibitors (TZV: 2-10 μM; Y27632: 2-15 μM; Fasudil: 2-10 μM; HA1100: 2-10 μM); TGFβ inhibitors (A8301: 0.1-5 μM; SB431542: 2-50 μM; LY364947: 0.5 μM; LY21: 0.5 μM; 616452: 10 μM).
In several experiments, to testing the reprogramming efficiency after regulate each small molecules, the indicated small molecules were removed from the cocktails. The concentration of the small molecules used to targeting the same pathway or targets were indicated as follow: GSK3 inhibitors (CHIR99021: 3-15 μM; TD114-2: 0.5-2 μM; CHIR98014: 1-3 μM; GSK3βi XV: 0.05-0.2 μM); TGFβ inhibitors (A8301: 0.2-5 μM; SB431542: 2-50 μM; 616452: 10 μM); RA pathway agonists (TTNPB: 0.2-10 μM; Ch55: 1-10 μM; AM580: 0.1-1 μM); Rock inhibitors (Y27632: 2-15 μM; Fasudil: 2-10 μM; HA1100: 2-10 μM; TZV: 2-10 μM); Smoothened agonists (SAG: 0.2-2 μM; Purmorphamine: 0.5-2 μM; Hg-Ag1.5: 0.5-1 μM; Human shh: 20-200 μM); histone demethylation inhibitors (Tranylcypromine: 2-50 μM; GSK2879: 0.02-2 μM; LSD-C76: 0.2-5 μM; S2101: 0.5-5 μM; LSD-2D: 0.2-5 μM; RN-1: 0.2-5 μM); DNMT inhibitors (5-azaC: 2-15 μM; Decitabine: 0.5-10 μM; RG108: 0.5-10 μM); JNK inhibitors (JNK-in-8: 0.2-2 μM; JNK-in-5: 0.5-1 μM; JNK-in-7: 0.2-2 μM; JNK-in-12: 0.2-0.5 μM); CBP/p300 bromodomain inhibitor (SGC-CBP30: 0.5-2 μM; I-CBP112: 0.5-5 μM; GNE272: 0.5-5μM; GNE409:0.5-5μM); Menin-MLL interaction inhibitor (VTP50469: 0.5-2μM; MI3454: 0.5-2μM; WDR5-IN-4: 0.5-2μM).

LIN28A = test: Withdrawing individual chemicals from stage I: LIN28A expression; type: cell-based, human; conditions: compound removed from stage I condition
Protocol: as §2, with “Ch55: 1-5 μM;” left out, “([…]:” for “(A8301:”, “μM). […] The data were analyzed using the delta-delta Ct method. GAPDH was used as a control to normalize the expression of target genes.” for “μM).”

[4] = tested on: fibroblast marker genes (somatic program); test: Withdrawing individual chemicals from stage I: fibroblast marker genes; type: cell-based, human; conditions: compound removed from stage I condition
Protocol: as §2, with “Ch55: 1-5 μM;” left out, “([…]:” for “(A8301:”, “μM). […] The data were analyzed using the delta-delta Ct method. GAPDH was used as a control to normalize the expression of target genes.” for “μM).”

## O=C(Nc1cccc2cccnc12)c1ccc(N2C(=O)[C@@H]3[C@H](C2=O)[C@@H]2C=C[C@H]3C2)cc1 [IWR-1]
Human somatic cells [1]
  replacement of IWP-2: able to replace IWP-2

## CCC(=O)N1CCOc2c(cc(-c3ccc(OC)c(OC)c3)cc2OC[C@H]2CCCN(C)C2)C1 [I-CBP112]
Human somatic cells [2]
  reprogramming efficiency: can improve

## Cc1ccc(F)c(NC(=O)Nc2ccc(-c3cccc4[nH]nc(N)c34)cc2)c1 [ABT869, N-[4-(3-amino-1H-indazol-4-yl)phenyl]-N′-(2-fluoro-5-methylphenyl)-urea]
Human fibroblasts
  generation of the epithelial-like cells: can facilitate

## C[C@@H](N)[C@H]1CC[C@H](C(=O)Nc2ccncc2)CC1 [Y27632, (+)-(R)-trans-4-(1-aminoethyl)-N-(4-pyridyl)cyclohexanecarboxamide+++dihydrochloride]
Human fibroblasts
  generation of the epithelial-like cells: can facilitate

## CNC1CCC(N(Cc2cccc(-c3ccncc3)c2)C(=O)c2sc3ccccc3c2Cl)CC1 (centres unmarked) [SAG]
Human fibroblasts
  generation of the epithelial-like cells: can facilitate

## Cc1cnc(-c2cnc(NCCNc3ccc(C#N)cn3)nc2-c2ccc(Cl)cc2Cl)[nH]1 [CHIR99021, 6-[[2-[[4-(2,4-Dichlorophenyl)-5-(5-methyl-1H-imidazol-2-yl)-2-pyrimidinyl]amino]ethyl]amino]-3-pyridinecarbonitrile]
Human somatic cells [3]
  generation of hCiPSCs: greatly impaired
LIN28A
  LIN28A activation: severely reduced
[4]
  downregulation of the somatic program: inhibited

## Clc1ccc(Nc2nnc(Cc3ccncc3)c3ccccc23)cc1 [Valatanib]
Human somatic cells [1]
  replacement of ABT 869: able to replace ABT 869

## Cc1cccc(-c2n[nH]cc2-c2ccc3ncccc3n2)n1 [compound 616452, 2-(3-(6-Methylpyridin-2-yl)-1H-pyrazol-4-yl)-1,5-naphthyridine]
Human somatic cells [3]
  generation of hCiPSCs: greatly impaired
LIN28A
  LIN28A activation: severely reduced
[4]
  downregulation of the somatic program: inhibited

## COc1cc2ncc(-c3ccccc3)nc2cc1OC [AG1296, 6,7-Dimethoxy-3-phenylquinoxaline]
Human somatic cells [1]
  replacement of ABT 869: able to replace ABT 869

## C/C(=C\c1ccc(C(=O)O)cc1)c1ccc2c(c1)C(C)(C)CCC2(C)C [TTNPB, 4-[(E)-2-(5,6,7,8-Tetrahydro-5,5,8,8-tetramethyl-2-naphthalenyl)-1-propenyl]benzoic acid]
Human somatic cells [3]
  generation of hCiPSCs: greatly impaired
LIN28A
  LIN28A activation: severely reduced
[4]
  downregulation of the somatic program: inhibited

## COc1ccc(CCc2nc3cc(-c4c(C)noc4C)ccc3n2C[C@H](C)N2CCOCC2)cc1Cl [SGC-CBP30, 2-[2-(3-chloro-4-methoxyphenyl)ethyl]-5-(3,5-dimethyl-4-isoxazolyl)-1-[(2S)-2-(4-morpholinyl)propyl]-1H-benzimidazole]
Human somatic cells [2]
  reprogramming efficiency: can improve

## Cc1cc(-c2ccc(CC(=O)Nc3ccc(-c4cccnc4)cc3)cc2)ccn1 [WNT-C59, 4-(2-Methyl-4-pyridinyl)-N-[4-(3-pyridinyl)phenyl]benzeneacetamide]
Human somatic cells [1]
  replacement of IWP-2: able to replace IWP-2

## CC(=O)N1CCc2c(c(Nc3ccc(-c4cnn(C)c4)cc3F)nn2[C@H]2CCOC2)C1 [GNE272]
Human somatic cells [2]
  reprogramming efficiency: can improve

## O=c1[nH]c(-c2ccc(C(F)(F)F)cc2)nc2c1CSCC2 [XAV-939, 3,5,7,8-Tetrahydro-2-[4-(trifluoromethyl)phenyl]-4H-thiopyrano[4,3-d]pyrimidin-4-one]
Human somatic cells [1]
  replacement of IWP-2: able to replace IWP-2
